{"source": "patent EP1272220B2", "about": "“FORMULATION FOR THE PREVENTION OF CARDIOVASCULAR DISEASE” (Wald, Nicholas John, priority 2000, dated 2001)", "note": "Marks after values point to notes of the source that are not given here."}
{"test": "Prevalence of adverse effects in randomised placebo controlled trials (treated minus control)", "assay_type": "in vivo, persons", "conditions": "preferred daily dose: Hydrochlorothiazide 12.5 mg, Atenolol 25 mg, Enalapril 5 mg, Aspirin 75 mg", "excerpt": "(§1) The dose of each medication has been chosen to maximise the ratio of benefit to hazard. It is recognised that some persons taking a combination of six drugs would develop adverse effects that were unacceptable. The adverse effects attributable to each of the component medications would be made clear to persons taking the combined formulation and alternative formulations omitting one or more of the component ingredients, with orwithout a substitute ingredient, would be available for persons unable to tolerate one component. […]"}
{"smiles": "NS(=O)(=O)c1cc2c(cc1Cl)NCNS2(=O)=O", "note": "[Hydrochlorothiazide]", "Commonest adverse effects": "dizziness, impotence, nausea"}
{"smiles": "CC(C)NCC(O)COc1ccc(CC(N)=O)cc1", "note": "(stereo not drawn) [Atenolol]", "Commonest adverse effects": "cold extremities, fatigue, dizziness"}
{"smiles": "CCOC(=O)[C@H](CCc1ccccc1)N[C@@H](C)C(=O)N1CCC[C@H]1C(=O)O", "note": "[Enalapril]", "Commonest adverse effects": "cough"}
{"smiles": "CC(=O)Oc1ccccc1C(=O)O", "note": "[Aspirin]", "Commonest adverse effects": "bleeding, indigestion"}
{"test": "Prevalence of adverse effects in randomised placebo controlled trials (treated minus control)", "assay_type": "in vivo, persons", "conditions": "preferred daily dose: Hydrochlorothiazide 12.5 mg, Atenolol 25 mg, Enalapril 5 mg, Atorvastatin 10 mg, Aspirin 75 mg, Folic acid 0.8 mg", "excerpt": "as §1"}
{"smiles": "NS(=O)(=O)c1cc2c(cc1Cl)NCNS2(=O)=O", "note": "[Hydrochlorothiazide]", "Prevalence of any adverse effect in randomised trials (treated minus control)": "1.4%^a", "Prevalence of serious adverse effects (those that warranted withdrawal from randomised trial) (treated minus control)": "0.1%^a"}
{"smiles": "CC(C)NCC(O)COc1ccc(CC(N)=O)cc1", "note": "(stereo not drawn) [Atenolol]", "Prevalence of any adverse effect in randomised trials (treated minus control)": "5.6%^a", "Prevalence of serious adverse effects (those that warranted withdrawal from randomised trial) (treated minus control)": "0.9%^a"}
{"smiles": "CCOC(=O)[C@H](CCc1ccccc1)N[C@@H](C)C(=O)N1CCC[C@H]1C(=O)O", "note": "[Enalapril]", "Prevalence of any adverse effect in randomised trials (treated minus control)": "2.1%^a", "Prevalence of serious adverse effects (those that warranted withdrawal from randomised trial) (treated minus control)": "0.2%^a"}
{"smiles": "Nc1nc2ncc(CNc3ccc(C(=O)N[C@@H](CCC(=O)O)C(=O)O)cc3)nc2c(=O)[nH]1", "note": "[Folic acid]", "Prevalence of any adverse effect in randomised trials (treated minus control)": "<0.1%", "Prevalence of serious adverse effects (those that warranted withdrawal from randomised trial) (treated minus control)": "<0.1%"}
{"smiles": "CC(C)c1c(C(=O)Nc2ccccc2)c(-c2ccccc2)c(-c2ccc(F)cc2)n1CC[C@@H](O)C[C@@H](O)CC(=O)O", "note": "[Atorvastatin]", "Prevalence of any adverse effect in randomised trials (treated minus control)": "0.1%", "Prevalence of serious adverse effects (those that warranted withdrawal from randomised trial) (treated minus control)": "<0.1%"}
{"smiles": "CC(=O)Oc1ccccc1C(=O)O", "note": "[Aspirin]", "Prevalence of any adverse effect in randomised trials (treated minus control)": "1.8%^b", "Prevalence of serious adverse effects (those that warranted withdrawal from randomised trial) (treated minus control)": "0.7%^b (mainly rectal or urinary bleeding)"}
{"test": "Analysis of blood pressure reduction according to dose in 187 randomised placebo controlled trials of thiazide diuretics, beta-blockers and ACE inhibitors", "assay_type": "in vivo, persons", "conditions": "Hydrochlorothiazide 12.5 mg + Atenolol 25 mg + Enalapril 5 mg daily, combined effect, half standard dose", "excerpt": "For drugs used to lower blood pressure, the dose of an active principal is below the lower therapeutic dosage for the indication of the active principal. As used herein, the term \"therapeutic dosage\" is intended to referto the commonly used dose in clinical practice for the treatment of high levels of the risk factor or for the treatment of cardiovascular disease by the separate active principal. The most preferred doses for blood pressure lowering agents are half of the doses at the lower end of the therapeutic range recommended in the British National Formulary of March 2000. This is in order to maximise the therapeutic benefit of the combination of agents, while minimising the risks of adverse effects of the individual agents. […] Most preferably, the dose of a blood pressure lowering agent is about half the recommended dose (or, where a range of doses is given, half of the recommended dose at the lower end of the recommended therapeutic range) for the blood pressure lowering agent.\nThe corresponding reductions in incidence of ischaemic heart disease and stroke are those to be expected from the blood pressure reductions, from published analyses of cohort studies and randomised controlled trials of blood pressure and ischaemic heart disease and stroke (references 1, 5)."}
{"smiles": "NS(=O)(=O)c1cc2c(cc1Cl)NCNS2(=O)=O", "note": "[Hydrochlorothiazide]", "Associated physiological variable (reduction produced by drug): Blood pressure, diastolic": "(12 mmHg diastolic)^a"}
{"smiles": "CC(C)NCC(O)COc1ccc(CC(N)=O)cc1", "note": "(stereo not drawn) [Atenolol]", "Associated physiological variable (reduction produced by drug): Blood pressure, diastolic": "(12 mmHg diastolic)^a"}
{"smiles": "CCOC(=O)[C@H](CCc1ccccc1)N[C@@H](C)C(=O)N1CCC[C@H]1C(=O)O", "note": "[Enalapril]", "Associated physiological variable (reduction produced by drug): Blood pressure, diastolic": "(12 mmHg diastolic)^a"}
{"test": "not given", "conditions": "Folic acid 0.8 mg daily; cited from earlier work"}
{"smiles": "Nc1nc2ncc(CNc3ccc(C(=O)N[C@@H](CCC(=O)O)C(=O)O)cc3)nc2c(=O)[nH]1", "note": "[Folic acid]", "Associated physiological variable (reduction produced by drug): Plasma/serum homocysteine": "Plasma/serum homocysteine (3 µmol/I)^f"}
{"test": "not given", "conditions": "Atorvastatin 10 mg daily; published placebo controlled trials (reference 200); cited from earlier work"}
{"smiles": "CC(C)c1c(C(=O)Nc2ccccc2)c(-c2ccccc2)c(-c2ccc(F)cc2)n1CC[C@@H](O)C[C@@H](O)CC(=O)O", "note": "[Atorvastatin]", "Associated physiological variable (reduction produced by drug): Serum cholesterol": "Serum cholesterol (1.8 mmol/I)°"}
{"test": "Expected reduction in risk of ischaemic heart disease and stroke, from analyses of cohort studies and randomised controlled trials", "assay_type": "in vivo, persons", "conditions": "Hydrochlorothiazide 12.5 mg + Atenolol 25 mg + Enalapril 5 mg daily combined; expected from blood pressure reduction of 12 mmHg diastolic", "excerpt": "(§2) This combined estimate is based on the fact that the effects on the four different risk factors are unrelated and so the expected effects of changing each one will be independent of each other. This expectation is supported by two classes of evidence. […] For example the ratio of the risk of a disease event in persons with high blood pressure and the risk in persons with low blood pressure is similar, irrespective of the values of serum cholesterol and other risk factors. Second, some randomised clinical trials have used combinations of two of the drugs (for example beta blockers and aspirin) in patients with ischaemic heart disease and have shown that the effects are independent (that is, the relative risk in patients who took two drugs (compared with the risk in those who took none) was similar to the relative risk in persons taking one of the drugs multiplied by the relative risk in persons taking the other drug). Accordingly, the effect of the different drugs in combination in Table 3 has been calculated by multiplying the effects of each as shown in footnotes h and j. Table 3 - The constituent drugs in the proposed combined formulation, the cardiovascular risk factors that each alter, the amount by which each factor would be changed, and the resulting expected reduction in risk of ischaemic heart disease and stroke. [table]", "units": {"Expected reduction in risk of: ischaemic heart disease": "%^b", "Expected reduction in risk of: stroke": "%^b"}}
{"smiles": "NS(=O)(=O)c1cc2c(cc1Cl)NCNS2(=O)=O", "note": "[Hydrochlorothiazide]", "Expected reduction in risk of: ischaemic heart disease": 43, "Expected reduction in risk of: stroke": 63}
{"smiles": "CC(C)NCC(O)COc1ccc(CC(N)=O)cc1", "note": "(stereo not drawn) [Atenolol]", "Expected reduction in risk of: ischaemic heart disease": 43, "Expected reduction in risk of: stroke": 63}
{"smiles": "CCOC(=O)[C@H](CCc1ccccc1)N[C@@H](C)C(=O)N1CCC[C@H]1C(=O)O", "note": "[Enalapril]", "Expected reduction in risk of: ischaemic heart disease": 43, "Expected reduction in risk of: stroke": 63}
{"test": "Expected reduction in risk of ischaemic heart disease and stroke, from analyses of cohort studies and randomised controlled trials", "assay_type": "in vivo, persons", "conditions": "single drug at preferred daily dose: Atorvastatin 10 mg, Aspirin 75 mg (14 trials of 50-100 mg daily), Folic acid 0.8 mg", "excerpt": "as §2"}
{"smiles": "Nc1nc2ncc(CNc3ccc(C(=O)N[C@@H](CCC(=O)O)C(=O)O)cc3)nc2c(=O)[nH]1", "note": "[Folic acid]", "Expected reduction in risk of: ischaemic heart disease": "15%^g"}
{"smiles": "CC(C)c1c(C(=O)Nc2ccccc2)c(-c2ccccc2)c(-c2ccc(F)cc2)n1CC[C@@H](O)C[C@@H](O)CC(=O)O", "note": "[Atorvastatin]", "Expected reduction in risk of: ischaemic heart disease": "61 %^d", "Expected reduction in risk of: stroke": "50%^d"}
{"smiles": "CC(=O)Oc1ccccc1C(=O)O", "note": "[Aspirin]", "Expected reduction in risk of: ischaemic heart disease": "38%^e", "Expected reduction in risk of: stroke": "15%^e"}
{"test": "not given", "conditions": "randomised trials; platelet function not measured; cited from earlier work"}
{"smiles": "CC(=O)Oc1ccccc1C(=O)O", "note": "[Aspirin]", "incidence of heart attacks and stroke": "reduces the incidence of heart attacks and stroke in both high risk and low risk persons"}
